From ChEMBL document CHEMBL4118062, “Novel NO-releasing plumbagin derivatives: Design, synthesis and evaluation of antiproliferative activity” (Eur J Med Chem, 2017)

Assays:
[1] = tested on: HepG2; assay: Cytotoxicity against human HepG2 cells assessed as growth inhibition after 72 hrs by MTT assay; type: functional, cell-based; settings: HepG2, 72 h
[2] = tested on: MDA-MB-231; assay: Cytotoxicity against human MDA-MB-231 cells assessed as growth inhibition at 10 uM after 72 hrs by MTT assay relative to control; type: functional; settings: MDA-MB-231, 72 h, read-out: GI
[3] = Drug metabolism in human MDA-MB-231 cells assessed as nitric oxide release at 30 uM after 0.5 to 30 hrs by Griess assay; type: ADME, cell-based; settings: mda-mb-231, 30 µM
[4] = Selectivity ratio of IC50 for human A549 cells to IC50 for human MDA-MB-231 cells; type: functional
[5] = tested on: A549; assay: Cytotoxicity against human A549 cells assessed as growth inhibition after 72 hrs by MTT assay; type: functional, cell-based; settings: A549, 72 h
[6] = tested on: HepG2; assay: Cytotoxicity against human HepG2 cells assessed as growth inhibition at 10 uM after 72 hrs by MTT assay relative to control; type: functional; settings: HepG2, 72 h, read-out: GI
[7] = tested on: MDA-MB-231; assay: Cytotoxicity against human MDA-MB-231 cells assessed as growth inhibition after 72 hrs by MTT assay; type: functional, cell-based; settings: MDA-MB-231, 72 h
[8] = Selectivity ratio of IC50 for human HepG2 cells to IC50 for human MDA-MB-231 cells; type: functional
[9] = tested on: HepG2; assay: Cytotoxicity against human HepG2 cells assessed as growth inhibition at 40 uM after 72 hrs by MTT assay relative to control; type: functional; settings: HepG2, 72 h, read-out: GI
[10] = tested on: MDA-MB-231; assay: Cytotoxicity against human MDA-MB-231 cells assessed as growth inhibition at 40 uM after 72 hrs by MTT assay relative to control; type: functional; settings: MDA-MB-231, 72 h, read-out: GI
[11] = tested on: MDA-MB-231; assay: Cytotoxicity against human MDA-MB-231 cells assessed as growth inhibition at 20 uM after 72 hrs by MTT assay relative to control; type: functional; settings: MDA-MB-231, 72 h, read-out: GI
[12] = tested on: HepG2; assay: Cytotoxicity against human HepG2 cells assessed as growth inhibition at 20 uM after 72 hrs by MTT assay relative to control; type: functional; settings: HepG2, 72 h, read-out: GI
[13] = Chemical stability in PBS at pH 6 at 1000 uM after 3 to 24 hrs by HPLC method; type: physicochemical; settings: buffer, pH 6, 1000 µM
[14] = Drug degradation in PBS at pH 8 at 1000 uM after 24 hrs by HPLC method; type: physicochemical; settings: read-out: Drug degradation
[15] = Drug degradation in PBS at pH 7.4 at 1000 uM after 24 hrs by HPLC method; type: physicochemical; settings: read-out: Drug degradation
[16] = Chemical stability in PBS at pH 8 at 1000 uM after 24 hrs by HPLC method; type: physicochemical; settings: buffer, pH 8, 24 h
[17] = Chemical stability in PBS at pH 7.4 assessed as parent compound remaining at 1000 uM after 24 hrs by HPLC method; type: physicochemical; settings: read-out: Stability

In the case of `CC1=C(CC(=O)OCCCCOc2no[n+]([O-])c2S(=O)(=O)c2ccccc2)C(=O)c2c(O)cccc2C1=O`, the IC50 [1] is reported as 7.72 µM, the inhibition of growth at 10 µM [2] is reported as 96.3% and the Drug metabolism [3] is reported as “Metabolite_Detected”. The “Ratio IC50” value [4] was greater than 3.8, the IC50 [5] was greater than 20 µM and the inhibition of growth at 10 µM [6] was 87.2%. For the same compound, the IC50 [7] was 5.2 µM and the “Ratio IC50” value [8] was 1.5.

`CC1=C(CC(=O)O)C(=O)c2c(O)cccc2C1=O` gave an inhibition of growth at 40 µM [9] of 11% and an inhibition of growth at 40 µM [10] of 2.4%.

For `CC1=C(C(C)CC(=O)OCCCOc2no[n+]([O-])c2S(=O)(=O)c2ccccc2)C(=O)c2c(O)cccc2C1=O` (centres undefined), the IC50 [1] was 4.32 µM, the inhibition of growth at 10 µM [2] was 95.3% and the Drug metabolism [3] was “Metabolite_Detected”. For the same compound, the “Ratio IC50” value [4] was 5.8, the IC50 [5] was 13.9 µM and the inhibition of growth at 10 µM [6] was 92.7%. For the same compound, the IC50 [7] was 2.42 µM and the “Ratio IC50” value [8] was 1.8.

In the case of `CC1=C(CC(=O)OCC(C)COc2no[n+]([O-])c2S(=O)(=O)c2ccccc2)C(=O)c2c(O)cccc2C1=O` (centres undefined), the IC50 [1] is reported as 3 µM, the inhibition of growth at 10 µM [2] is reported as 97.3% and the Drug metabolism [3] is reported as “Metabolite_Detected”. The “Ratio IC50” value [4] was 3.9, the IC50 [5] was 5.83 µM and the inhibition of growth at 10 µM [6] was 96.6%. For the same compound, the IC50 [7] was 1.51 µM and the “Ratio IC50” value [8] was 2.

In the case of `CC1=C(CC(=O)OCCCOc2no[n+]([O-])c2S(=O)(=O)c2ccccc2)C(=O)c2c(O)cccc2C1=O`, the IC50 [1] is reported as 4.41 µM, the inhibition of growth at 10 µM [2] is reported as 97.7% and the “Ratio IC50” value [4] is reported as 4. For the same compound, the IC50 [5] was 7 µM, the inhibition of growth at 10 µM [6] was 97.2% and the IC50 [7] was 1.76 µM. For the same compound, the “Ratio IC50” value [8] was 2.5.

`CC1=C(CCCC(=O)O)C(=O)c2c(O)cccc2C1=O` showed an inhibition of growth at 20 µM [11] of 6.1% and an inhibition of growth at 20 µM [12] of 23.2%.

With `CC1=C(C(C)CC(=O)OCC(C)COc2no[n+]([O-])c2S(=O)(=O)c2ccccc2)C(=O)c2c(O)cccc2C1=O` (centres undefined) the IC50 [1] was 3.74 µM, the inhibition of growth at 10 µM [2] was 94.4% and the Drug metabolism [3] was “Metabolite_Detected”. For the same compound, the “Ratio IC50” value [4] was 6.1, the IC50 [5] was 12.8 µM and the inhibition of growth at 10 µM [6] was 91.5%. For the same compound, the IC50 [7] was 2.11 µM and the “Ratio IC50” value [8] was 1.8.

For `CC1=C(CCCC(=O)OCCOc2no[n+]([O-])c2S(=O)(=O)c2ccccc2)C(=O)c2c(O)cccc2C1=O`, the IC50 [1] was 4.16 µM, the inhibition of growth at 10 µM [2] was 97.9% and the “Ratio IC50” value [4] was 6.7. For the same compound, the IC50 [5] was 10.2 µM, the inhibition of growth at 10 µM [6] was 95.1% and the IC50 [7] was 1.52 µM. The “Ratio IC50” value [8] was 2.7.

In the case of `CC1=C(C(C)CC(=O)OCCCCOc2no[n+]([O-])c2S(=O)(=O)c2ccccc2)C(=O)c2c(O)cccc2C1=O` (centres undefined), the IC50 [1] is reported as 4.24 µM, the inhibition of growth at 10 µM [2] is reported as 92.7% and the “Ratio IC50” value [4] is reported as 10. For the same compound, the IC50 [5] was 19.6 µM, the inhibition of growth at 10 µM [6] was 89.2% and the IC50 [7] was 1.98 µM. The “Ratio IC50” value [8] was 2.1.

In the case of `CC1=C(CCC(=O)O)C(=O)c2c(O)cccc2C1=O`, the inhibition of growth at 40 µM [9] is reported as 20.3% and the inhibition of growth at 40 µM [10] is reported as 5%.

Work on `CC1=C(CC(=O)OCCOc2no[n+]([O-])c2S(=O)(=O)c2ccccc2)C(=O)c2c(O)cccc2C1=O` yielded an IC50 [1] of 6.11 µM, an inhibition of growth at 10 µM [2] of 97.3% and an IC50 [5] of 18.6 µM. For the same compound, the inhibition of growth at 10 µM [6] was 93.3%, the IC50 [7] was 3.27 µM and the “Ratio IC50” value [8] was 1.9.

With `CC1=C(CCC(=O)OCCCOc2no[n+]([O-])c2S(=O)(=O)c2ccccc2)C(=O)c2c(O)cccc2C1=O` the IC50 [1] was 6.79 µM, the inhibition of growth at 10 µM [2] was 96.8% and the Drug metabolism [3] was “Metabolite_Detected”. The “Ratio IC50” value [4] was greater than 4.7, the IC50 [5] was greater than 20 µM and the inhibition of growth at 10 µM [6] was 95.1%. The IC50 [7] was 4.31 µM and the “Ratio IC50” value [8] was 1.6.

With `CC1=CC(=O)c2c(O)cccc2C1=O` [PLUMBAGIN] the IC50 [1] was 10.7 µM, the inhibition of growth at 10 µM [2] was 32.8% and the Stability [13] was “Stable”. The “Ratio IC50” value [4] was 0.9, the IC50 [5] was 12.4 µM and the inhibition of growth at 10 µM [6] was 41%. For the same compound, the degraded at 24 h, 1000 µM [14] was greater than 95%, the IC50 [7] was 14.2 µM and the “Ratio IC50” value [8] was 0.7. For the same compound, the degraded at 24 h, 1000 µM [15] was greater than 95%.

In the case of `CC1=C(CCC(=O)OCC(C)COc2no[n+]([O-])c2S(=O)(=O)c2ccccc2)C(=O)c2c(O)cccc2C1=O` (centres undefined), the IC50 [1] is reported as 6.69 µM, the inhibition of growth at 10 µM [2] is reported as 97.4% and the Drug metabolism [3] is reported as “Metabolite_Detected”. For the same compound, the “Ratio IC50” value [4] was 6.8, the IC50 [5] was 18.2 µM and the inhibition of growth at 10 µM [6] was 73.4%. The IC50 [7] was 2.67 µM and the “Ratio IC50” value [8] was 2.5.

In the case of `CC1=C(CCC(=O)OCCCCOc2no[n+]([O-])c2S(=O)(=O)c2ccccc2)C(=O)c2c(O)cccc2C1=O`, the IC50 [1] is reported as 3.33 µM, the inhibition of growth at 10 µM [2] is reported as 97.6% and the Drug metabolism [3] is reported as “Metabolite_Detected”. For the same compound, the “Ratio IC50” value [4] was 6.7, the IC50 [5] was 8.31 µM and the inhibition of growth at 10 µM [6] was 95.4%. The IC50 [7] was 1.24 µM and the “Ratio IC50” value [8] was 2.7.

In the case of `CC(=O)c1cc2c(o1)C(=O)c1ccccc1C2=O` [NAPABUCASIN], the IC50 [1] is reported as 0.66 µM, the “Ratio IC50” value [4] is reported as 2.2 and the IC50 [5] is reported as 0.74 µM. For the same compound, the IC50 [7] was 0.34 µM and the “Ratio IC50” value [8] was 1.8.

With `CC1=C(CCC(=O)OCCOc2no[n+]([O-])c2S(=O)(=O)c2ccccc2)C(=O)c2c(O)cccc2C1=O` the IC50 [1] was 2.98 µM, the inhibition of growth at 10 µM [2] was 97.6% and the Stability [13] was “Stable”. The “Ratio IC50” value [4] was 7.7, the IC50 [5] was 9.31 µM and the inhibition of growth at 10 µM [6] was 95.7%. The IC50 [7] was 1.21 µM, the “Ratio IC50” value [8] was 2.5 and the Stability [16] was “Stable”. The remaining at 24 h, 1000 µM [17] was greater than 98%.
